Experimental data as given in US20160202242A1, “CELL DEATH-INDUCING AGENT, CELL GROWTH-INHIBITING AGENT, AND PHARMACEUTICAL COMPOSITION FOR TREATMENT OF DISEASE CAUSED BY ABNORMAL CELL GROWTH” (Nitto Denko Corporation, priority 2014, published 2016).
d = 2'-deoxy (DNA); r = 2'-OH (RNA)

What was measured:
Type in all cases: cell-based, human
[1] = tested on: PANC-1, MIA PaCa-2, or A549 cells; assay: Number of cells counted after 5 days of culture, single siRNA transfection; conditions: siRNA 50 nM plus control siRNA 50 nM
Description: (§1) As examples of cancer cells, 1×10^5 M7609 cells (human colorectal cancer cells having KRAS mutation) and PANC-1 cells (human pancreatic cancer cells having KRAS mutation) were inoculated to 6 cm Petri dishes and cultured for 18 hours in Roswell Park Memorial Institute 1640 (RPMI 1640, Sigma-Aldrich Corp.) supplemented with 10% fetal bovine serum (FBS) and 0.5% L-glutamine. The culture conditions were 37° C. and 5% CO2, unless otherwise specified. Moreover, as an example of cancer cells, 0.5×10^5 A549 cells (human lung cancer cells having KRAS mutation) were inoculated to a 6 cm Petri dish and cultured for 18 hours in a Dulbecco's modified Eagle's medium (DMEM, Sigma-Aldrich Corp.) supplemented with 10% FBS and 1% L-glutamine. Furthermore, as an example of cancer cells, 1×10^5 MIA PaCa-2 cells (human pancreatic cancer cell having KRAS mutation) were inoculated to a 6 cm Petri dish and cultured for 18 hours in DMEM supplemented with 10% FBS and 1% L-glutamine. […]
Meanwhile, the influence of GST-π siRNA and/or P21 siRNA on the number of cells was tested. […] After culture for 5 days without the replacement of the medium, the cells were dissociated and collected from the Petri dish by trypsin treatment, and the number of cells was counted.

M7609 cells = assay: Senescence beta-galactosidase staining 13 days after inoculation, GST-π knocked down three times; conditions: GST-π siRNA 30 nM added three times
Description: As examples of cancer cells, 1×10^5 M7609 cells (human colorectal cancer cells having KRAS mutation) and PANC-1 cells (human pancreatic cancer cells having KRAS mutation) were inoculated to 6 cm Petri dishes and cultured for 18 hours in Roswell Park Memorial Institute 1640 (RPMI 1640, Sigma-Aldrich Corp.) supplemented with 10% fetal bovine serum (FBS) and 0.5% L-glutamine. The culture conditions were 37° C. and 5% CO2, unless otherwise specified. Moreover, as an example of cancer cells, 0.5×10^5 A549 cells (human lung cancer cells having KRAS mutation) were inoculated to a 6 cm Petri dish and cultured for 18 hours in a Dulbecco's modified Eagle's medium (DMEM, Sigma-Aldrich Corp.) supplemented with 10% FBS and 1% L-glutamine. Furthermore, as an example of cancer cells, 1×10^5 MIA PaCa-2 cells (human pancreatic cancer cell having KRAS mutation) were inoculated to a 6 cm Petri dish and cultured for 18 hours in DMEM supplemented with 10% FBS and 1% L-glutamine. Furthermore, as an example of cancer cells, 0.5×10^5 HCT116 cells (human colorectal cancer cells having KRAS mutation) were inoculated to a 6 cm Petri dish and cultured for 18 hours in McCoy's 5A Medium (McCoy, Sigma-Aldrich Corp.) supplemented with 10% FBS and 0.5% L-glutamine.
Whether the cell senescence as shown in FIGS. 6 to 9 was could be induced by knocking down GST-π was tested using the M7609 cells. […]

[2] = tested on: A549 cells, MIA PaCa-2 cells, PANC-1 cells, and HCT116 cells; assay: Phase difference images of cells after knockdown three times; conditions: knocked down three times; 7 days after inoculation
Description: As examples of cancer cells, 1×10^5 M7609 cells (human colorectal cancer cells having KRAS mutation) and PANC-1 cells (human pancreatic cancer cells having KRAS mutation) were inoculated to 6 cm Petri dishes and cultured for 18 hours in Roswell Park Memorial Institute 1640 (RPMI 1640, Sigma-Aldrich Corp.) supplemented with 10% fetal bovine serum (FBS) and 0.5% L-glutamine. The culture conditions were 37° C. and 5% CO2, unless otherwise specified. […]
First, for the PANC-1 cells, the MIA PaCa-2 cells, or the HCT116 cells, GST-π siRNA and P21 siRNA each at a final concentration of 25 nM, or GST-π siRNA or P21 siRNA at a final concentration of 25 nM (all added with control siRNA at a final concentration of 25 nM) were added to each of the Petri dishes, while for the A549 cells, GST-π siRNA and P21 siRNA each at a final concentration of 50 nM, or GST-π siRNA or P21 siRNA at a final concentration of 50 nM (added with control siRNA at a final concentration of 50 nM) were added to each of the Petri dishes. […] Seven days after the cell inoculation, the cells were dissociated and collected from the Petri dish by trypsin treatment, and the number of cells was counted. […]

P21 mRNA [3] = assay: P21 mRNA level by quantitative PCR 1 day after siRNA transfection; conditions: PANC-1, MIA PaCa-2, or A549 cells, GST-π siRNA 50 nM or 100 nM, vs control siRNA
Description: as §1, with “L-glutamine.” for “L-glutamine. Furthermore, as an example of cancer cells, 1×10^5 MIA PaCa-2 cells (human pancreatic cancer cell having KRAS mutation) were inoculated to a 6 cm Petri dish and cultured for 18 hours in DMEM supplemented with 10% FBS and 1% L-glutamine.”
GST-π siRNA and P21 siRNA each at a final concentration of 50 nM, GST-π siRNA or P21 siRNA at a final concentration of 50 nM (both added with control siRNA at a final concentration of 50 nM), or GST-π siRNA at a final concentration of 100 nM (without the addition of control siRNA) were added to each of the Petri dishes containing the PANC-1, MIA PaCa-2, or A549 cells. […] After culture for 1 day without the replacement of the medium, the GST-π mRNA level and the P21 mRNA level were quantified by quantitative PCR using 7300 Real Time PCR System (Applied Biosystems, Inc.).

P21 mRNA [4] = assay: P21 mRNA level quantified every day to the 4th day after siRNA addition; conditions: A549 or MIA PaCa-2 cells, siRNA 50 nM
Description: as §1
Moreover, as for the case where GST-π siRNA or control siRNA at a final concentration of 50 nM was added to each of the Petri dishes containing the A549 cells or the MIA PaCa-2 cells, the P21 mRNA level was similarly quantified every day from the day of addition of GST-π siRNA or control siRNA to the 4th day.

Substance	number of cells, each siRNA alone [1]	cell senescence (flat and large cells, blue color development by galactosidase staining) (M7609 cells)	cell morphology / cell senescence-like phenotype in phase difference image [2]	amount of P21 mRNA (P21 mRNA [3])	expression level of P21 mRNA over time (P21 mRNA [4])
P21 siRNA: siRNA against P21; sense UCCUAAGAGUGCUGGGCAUtt (SEQ ID NO: 33), antisense AUGCCCAGCACUCUUAGGAtt (SEQ ID NO: 34) (sense UCCUAAGAGUGCUGGGCAUTT; antisense AUGCCCAGCACUCUUAGGATT; sugars from the 5' end r19 d2, backbone not given here)	the number of cells cannot be decreased with respect to the number of inoculated cells, though cell growth is inhibited				
GST-π siRNA: siRNA against GST-π; sense GGGAGGCAAGACCUUCAUUtt (SEQ ID NO: 31), antisense AAUGAAGGUCUUGCCUCCCtg (SEQ ID NO: 32) (sense GGGAGGCAAGACCUUCAUUTT; antisense AAUGAAGGUCUUGCCUCCCTG; sugars from the 5' end r19 d2, backbone not given here)	the number of cells cannot be decreased with respect to the number of inoculated cells, though cell growth is inhibited	cell senescence was evoked	became flat and large cells	increased	increased over time
